Data taken from US20230391842A1, “RETRO-INVERSO PEPTIDES” (Herantis Pharma OYJ, priority 2019, published 2023).
Positions of bridges follow the written chain, without caps; N, C: chain ends. Non-standard residues stand in square brackets, D forms with d. Residues, ends and D or L forms follow the SMILES beside them.

Key:
[1] = test system: dopaminergic TH-positive neurons injured with MPP+; test: Neuroprotective effect on dopaminergic TH-positive neurons injured with MPP+ (primary mesencephalic culture); format: cell-based, rat; conditions: MPP+ 4 μM, 48 h; stated for 'most cases'
Description: Neuroprotective effects of compounds 1-20 (SEQ ID NO:s 1-20, parent and retro-inverso) were tested in an in vitro model in which primary cultures of rat embryonic mesencephalic neurons were stressed with MPP+, the active metabolite of neurotoxin 1-methyl-4-phenyl-1,2,3,6-tetrahydropyridine (MPTP). MPP+ kills dopaminergic (TH-positive) neurons via a variety of toxic mechanisms, including mitochondrial dysfunction, generation of peroxynitrite, oxidative stress, ER stress and induction of apoptosis.
Rat dopaminergic neurons were cultured as described by Visanji et al., 2008. Briefly, the midbrains obtained from 15-day-old rat embryos (Janvier, France) were dissected, and the ventral portion of the mesencephalic flexure, a region of the developing brain rich in dopaminergic neurons, was used for the cell preparations. The midbrain cells were dissociated by trypsinization for 20 min at 37° C. […] The reaction was stopped by adding Dulbecco's modified Eagle's medium (DMEM) containing DNAase I grade II (0.5 mg/mL) and 10% of fetal calf serum (FCS). Cells were then mechanically dissociated by 3 passages through a 10 ml pipette. Cells were then centrifuged at 180×g for 10 min at +4° C. on a layer of BSA (3.5%) in L15 medium. The cell pellets was re-suspended in a defined culture serum-free medium consisting of Neurobasal (Invitrogen) supplemented with B27 (2%), L-glutamine (2 mM) and 2% of PS solution and 10 ng/ml of Brain-derived neurotrophic factor (BDNF) and 1 ng/mL of Glial-Derived Neurotrophic Factor (GDNF). […] The cells were seeded at a density of 40 000 cells/well in 96 well-plates (pre-coated with poly-L-lysine) and maintained in a humidified incubator at 37° C. in 5% CO2/95% air atmosphere. Half of the medium was changed every 2 days with fresh medium. On 96-wells plates, only 60 wells are used. To avoid any edge effect, the first and last lines and columns were not be used for culture and were filled with sterile water.
On day 6 of culture, CDNF or the compounds 1-20 (SEQ ID NO:s 1-20, parent and retro-inverso), were dissolved in culture medium and then pre-incubated with mesencephalic neurons for 4 hours before the MPP+ application. Four hours after the preincubation of the compounds, MPP+ was added to a final concentration of 4 μM, diluted in control medium still in presence of compounds for 48 h.
48 hours after intoxication, the cells were fixed by a solution of 4% paraformaldehyde in PBS, pH 7.3 for 20 min at room temperature. The cells were washed twice in PBS, and then permeabilized and non-specific sites were blocked with a solution of PBS containing 0.1% of saponin and 1% FCS for 15 min at room temperature. Next, the cells were incubated with (a) a monoclonal antibody anti-Tyrosine Hydroxylase (TH) produced in mouse at dilution of 1:1 0000 and with (b) a polyclonal antibody anti-alpha-synuclein (aSyn) antibody produced in rabbit at dilution of 1:400 in PBS containing 1% FCS, 0.1% saponin, for 2 h at room temperature.
48 hours after intoxication, the cell culture supernatant was removed, and the cells fixed by a solution of 4% paraformaldehyde in PBS, pH 7.3 for 20 min at room temperature. The cells were washed twice in PBS, and then permeabilized and non-specific sites were blocked with a solution of PBS containing 0.1% of saponin and 1% FCS for 15 min at room temperature. Then, the cells were incubated with a) a monoclonal Anti-Tyrosine Hydroxylase (TH) antibody produced in mouse at dilution of 1:10000 in PBS containing 1% FCS, 0.1% saponin, for 2 hours at room temperature, and b) a polyclonal anti-postsynaptic density protein-95 (PSD-95) antibody produced in rabbit at dilution of 1:200 in PBS containing 1% FCS, 0.1% saponin, for 2 h at room temperature. This antibody stains specifically synapses.
For each condition, pictures representing the whole well area were automatically acquired using ImageXpress (Molecular device) at 10× (20 pictures, for TH and a-syn) or at 40× magnification (60 pictures, for TH and PSD-95). […]

[2] = test system: unfolded protein response (UPR) pathway signaling in TH-positive neurons injured with MPP+; test: Dependence of neuroprotection in MPP+-injured mesencephalic neurons on UPR signaling (PERK / IRE1alpha inhibitors); format: cell-based, rat
Description: CDNF and MANF protect cells from ER stress-induced cell dysfunction or cell death, such as apoptosis by modulating cellular responses to ER stress. […] Binding of compounds to GRP78-NBD was assessed in a cell-free binding assay using purified recombinant GRP78-NBD and synthesized peptides. As GRP78 also serves as a critical ligand of the three receptors of the unfolded protein response (UPR) pathway, IRE1[…], PERK and ATF6, the dependency of the compounds' neuroprotective effects on UPR signaling was also tested.
The neuronal cell culture, MPP+ intoxication, immunostaining and analysis of neuroprotective effects of compounds were performed as in Example 1. PERK inhibitor GSK2606414 (2 µM, Sigma) or IRE1alpha inhibitor KIRA6 (2 µM, Sigma) were added to is the culture 1 h before addition of the test compounds.

[3] = In vitro metabolic stability in rat plasma; format: in vitro ADME; conditions: 1 μM, 37° C., up to 120 min
Description: Metabolic stability of the retro-inverso and native control peptides was studied using rat plasma over the time period of 120 min, with initial test concentration of 1 μM. Samples were analysed using LC/QE-orbitrap-MS. Calculated half-life is based on compound disappearance in rat plasma.
The incubation was terminated by acetonitrile. […] Stock solutions was prepared using 50% DMSO, and the compounds were spiked 1/100 to incubation to have final DMSO content of 0.5%. […] For analysis of compounds 13-14 and 19-20 stock solutions were prepared with PBS, and samples were analyzed by UHPLC-ToF mass spectrometry. Enalapril 1 μM was used as a disappearance rate control.

[4] = In vivo pharmacokinetics after intravenous administration to rats; conditions: rat, 5 mg/kg intravenous bolus injection, male Sprague-Dawley rats, plasma
Description: Test compounds were intravenously (i.v.) administered to male Spraque-Dawley rats (about six weeks old, n=3 per compound) at 5 mg/kg. Blood samples were collected from jugular vein through implanted in-dwelling catheters (250 μl blood) into labelled polypropylene tubes containing anticoagulant (heparin) at 2 min, 5 min, 15 min, 30 min, 1 h, 2 h and 4 h after compound administration and held on wet ice for a maximum of 30 minutes. The blood samples were centrifuged for plasma separation (4° C., 21100 G, 5 min). Tolbutamide 500 ng/ml with 10% TFA in acetonitrile or in MeCN was used as an internal standard solution. The standard samples were prepared into rat plasma by spiking the matrix into concentrations 2-10 000 ng/ml of the analyte, respectively, and otherwise treated as the samples. To 50 μl aliquots of sample plasma was added 200 μl of internal standard. Samples were mixed (150 rpm, 15 min) and centrifugated (3000 rpm, 15 min). The analytical method was optimized for reaction monitoring chromatographic (peak shape & retention) shifts and mass spectrometric properties (ionization efficiency, MS/MS detection). Supernatants were is analyzed by UHPLC-TOF mass spectrometry using electrospray ionization. […]

[5] = target: nucleotide-binding domain of GRP78 (GRP78-NBD); test: Binding to GRP78-NBD Kd (μM)
Description: Table printed on a drawing sheet, FIG. 5B
Head of the field: Binding to GRP78-NBD Kd (μM)
GRP78-NBD is shown in a to translucent surface model along with its cartoon trace. The Cys-Cys bond in compound 14 (SEQ ID NO: 14) is shown in sticks.
The binding affinities are obtained by microscale thermophoresis-based cell free assay.
GSK2606414 was used to inhibit PERK signaling and KIRA6 to inhibit IRE1alpha signaling. * p<0.05, ** p<0.01, *** p<0.001, **** p<0.0001 one-way ANOVA test with post-hoc Fisher's LSD test for pairwise comparison vs MPP+ negative control. #p<0.05, ##p<0.01, ###p<0.001, ####p<0.0001 one-way ANOVA test with post-hoc Fisher's LSD test for pairwise comparison between effect of compound alone and its combination with UPR signal inhibitor.
Where the first naming reader finds the target: head: Binding to GRP78-NBD Kd (μM)

rat hepatocytes = test: In vitro metabolic stability in rat hepatocytes; conditions: 1 μM, 37° C., 0-60 min
[6] = In vitro metabolic stability in human plasma; format: in vitro ADME; conditions: 1 μM, 37° C., up to 120 min
Description: Metabolic stability was studied using human plasma over the time period of 120 min, with initial test concentration of 1 μM. Samples were analysed using LC/QE-orbitrap-MS. Calculated half-life is based on compound disappearance in human plasma.
The incubation was terminated by acetonitrile. […] Propanthelin bromide 1 uM was used as a disappearance rate control. […] The in vitro half-life (t1/2) of is study compound is defined as: t1/2=ln2/k.

human hepatocytes = test: In vitro metabolic stability in human hepatocytes; conditions: 1 μM, 37° C., 0-60 min

SMILES	potency of retro-inverso peptides relative to their parent compounds and to full-length CDNF protein [1]	neuroprotective effect in the presence of PERK inhibitor GSK2606414 ([2]; GSK2606414 added 1 h before test compound)	neuroprotective effect in the presence of IRE1alpha inhibitor KIRA6 ([2]; KIRA6 added 1 h before test compound)	stability in rat plasma as compared to parent compound [3]	AUC(0-inf) [4] [ng·h/mL]	MRT [4] [min]	Vd [4] [L/kg]	half-life [4] [min]	clearance ([4]; read-out: CI) [mL/min/kg]	Kd [5] [µM]	stability in rat hepatocytes as compared to parent compound (rat hepatocytes)	stability in human plasma as compared to parent compound [6]	stability in human hepatocytes as compared to parent compound (human hepatocytes)
C[C@H](O)[C@@H](NC(=O)[C@H]1CSSC[C@@H](NC(=O)[C@@H](C)NC(=O)[C@H](N)CCC(=O)O)C(=O)NCC(=O)N[C@H](CCCCN)C(=O)N1)C(=O)N[C@H](CCC(=O)O)C(=O)O [Compound 20, EACGKCTE]	comparable	abolished	abolished	significantly improved stability	18400	23.9	0.11	20.5	4.57	3.4	significantly improved stability	–	–
C[C@H](O)[C@@H](NC(=O)[C@H]1CSSC[C@@H](NC(=O)[C@@H](C)NC(=O)[C@@H](CCC(=O)O)NC(=O)[C@@H](CCCCN)NC(=O)[C@H](N)CO)C(=O)NCC(=O)N[C@H](CCCCN)C(=O)N1)C(=O)N[C@H](CCC(=O)O)C(=O)NCC(=O)O [Compound 8, SKEACGKCTEG] (H-[dS][dK][dE][dA][dC]G[dK][dC][dT][dE]G-OH; disulfide 5-8; N-terminus and C-terminus assumed)	–	–	–	significantly improved stability	–	–	–	–	–	–	significantly improved stability	improved stability	significantly improved stability
